{"source": "paper PMC4226252", "about": "“Biochemical interaction of anti-HCV telaprevir with the ABC transporters P-glycoprotein and breast cancer resistance protein” (BMC Research Notes, 2013)", "key": {"[1]": {"biological_target": "T1, P-gp (Homo sapiens, UniProt P08183)", "T1 sequence (P08183 whole entry)": "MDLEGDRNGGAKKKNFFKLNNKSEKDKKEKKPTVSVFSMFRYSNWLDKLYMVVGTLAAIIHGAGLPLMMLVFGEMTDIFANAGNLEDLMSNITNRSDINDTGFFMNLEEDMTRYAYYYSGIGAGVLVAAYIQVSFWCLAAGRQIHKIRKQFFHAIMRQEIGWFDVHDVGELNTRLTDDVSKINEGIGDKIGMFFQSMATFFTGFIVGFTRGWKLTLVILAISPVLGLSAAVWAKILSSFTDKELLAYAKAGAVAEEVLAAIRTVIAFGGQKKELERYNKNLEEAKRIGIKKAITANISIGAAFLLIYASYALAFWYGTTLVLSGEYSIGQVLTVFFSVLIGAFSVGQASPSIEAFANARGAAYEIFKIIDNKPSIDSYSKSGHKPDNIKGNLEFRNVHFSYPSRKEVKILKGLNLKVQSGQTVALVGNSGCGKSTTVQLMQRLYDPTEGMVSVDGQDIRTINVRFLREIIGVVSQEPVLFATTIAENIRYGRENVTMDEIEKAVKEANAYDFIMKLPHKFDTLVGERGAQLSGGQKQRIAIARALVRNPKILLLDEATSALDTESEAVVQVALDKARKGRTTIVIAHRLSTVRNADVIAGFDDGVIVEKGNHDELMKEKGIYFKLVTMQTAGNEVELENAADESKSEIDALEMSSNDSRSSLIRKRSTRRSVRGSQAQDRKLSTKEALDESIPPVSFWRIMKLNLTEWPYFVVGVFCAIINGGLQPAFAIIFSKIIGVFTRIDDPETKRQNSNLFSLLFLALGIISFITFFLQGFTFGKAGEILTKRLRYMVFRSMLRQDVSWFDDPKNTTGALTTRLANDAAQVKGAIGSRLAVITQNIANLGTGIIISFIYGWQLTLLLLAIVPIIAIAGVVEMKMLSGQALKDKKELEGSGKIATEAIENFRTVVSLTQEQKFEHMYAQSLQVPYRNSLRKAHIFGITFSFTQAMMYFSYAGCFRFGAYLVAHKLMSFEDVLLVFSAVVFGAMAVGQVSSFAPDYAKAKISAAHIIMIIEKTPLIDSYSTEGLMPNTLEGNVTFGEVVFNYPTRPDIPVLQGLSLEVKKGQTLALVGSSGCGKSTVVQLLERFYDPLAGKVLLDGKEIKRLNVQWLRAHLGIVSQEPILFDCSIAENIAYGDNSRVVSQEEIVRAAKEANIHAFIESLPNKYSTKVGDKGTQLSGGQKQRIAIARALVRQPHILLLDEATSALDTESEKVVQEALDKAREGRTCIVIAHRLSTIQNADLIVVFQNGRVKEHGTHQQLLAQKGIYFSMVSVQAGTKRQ", "experimental": "(§3) Then, they were mixed with [^3H]-labeled VCR (for P-gp) or E1S or MTX (for BCRP), and telaprevir at the indicated concentration in the reaction buffer (0.25 mol/L sucrose, 10 mmol/L HEPES-NaOH (pH 7.4), 10 mmol/L MgCl2, 10 mmol/L phosphocreatine, 100 μg/mL creatine phosphokinase, with or without 3 mmol/L adenosine triphosphate (ATP)) in a total volume of 50 μL. After 10 min of incubation at 25°C, the reaction mixture was stopped by the addition of ice-cold stop solution (0.25 mol/L sucrose, 10 mmol/L HEPES-NaOH (pH 7.4), 0.1 mol/L NaCl) and centrifuged at 18,000 × g for 10 min at 4°C. The pellets were solubilized by a liquid scintillation counter to measure their radioactivity levels. For kinetics analyses, the Michaelis–Menten equation and Lineweaver–Burk plots were applied to visualize the mechanism of transport inhibition, as v = Vmax[S]/([S] + (1 + [I]/Ki)Km), where [S] and [I] are concentrations of substrate and inhibitor respectively, and v is velocity of substrate uptake by transporter.\n(§4) Figure 1 Effect of telaprevir on the intravesicular transport of vincristine sulfate (VCR) by P-gp. A. The ability to transport VCR in telaprevir-absent or -present conditions was determined by measuring the radioactivity taken up in membrane vesicles. B. Analyses of Lineweaver–Burk plots of inhibition of VCR uptake by P-gp. The VCR concentration was 100 nmol/L (A) and 50, 100, and 200 nmol/L (B), and of telaprevir was 0, 1, 10, and 100 μmol/L (A) and 20 μmol/L (B), respectively. Membrane vesicles from K562/MDR cells were mixed with each concentration of VCR, telaprevir, and 3 mmol/L of ATP in the incubation medium as described in the Methods section. VCR uptake is shown for parental K562 (white column for ATP-absent; gray column for ATP-present) and K562⁄MDR (dark-gray column for ATP-absent; black column for ATP-present) (A) and the inverse is shown for no inhibitor (open rhombus) and with telaprevir (black circle) (B). Results are means ± SD of triplicate (A) or quadruplicate (B) determinations."}, "[2]": {"biological_target": "T2, BCRP (Homo sapiens, UniProt Q9UNQ0)", "T2 sequence (Q9UNQ0 1-655)": "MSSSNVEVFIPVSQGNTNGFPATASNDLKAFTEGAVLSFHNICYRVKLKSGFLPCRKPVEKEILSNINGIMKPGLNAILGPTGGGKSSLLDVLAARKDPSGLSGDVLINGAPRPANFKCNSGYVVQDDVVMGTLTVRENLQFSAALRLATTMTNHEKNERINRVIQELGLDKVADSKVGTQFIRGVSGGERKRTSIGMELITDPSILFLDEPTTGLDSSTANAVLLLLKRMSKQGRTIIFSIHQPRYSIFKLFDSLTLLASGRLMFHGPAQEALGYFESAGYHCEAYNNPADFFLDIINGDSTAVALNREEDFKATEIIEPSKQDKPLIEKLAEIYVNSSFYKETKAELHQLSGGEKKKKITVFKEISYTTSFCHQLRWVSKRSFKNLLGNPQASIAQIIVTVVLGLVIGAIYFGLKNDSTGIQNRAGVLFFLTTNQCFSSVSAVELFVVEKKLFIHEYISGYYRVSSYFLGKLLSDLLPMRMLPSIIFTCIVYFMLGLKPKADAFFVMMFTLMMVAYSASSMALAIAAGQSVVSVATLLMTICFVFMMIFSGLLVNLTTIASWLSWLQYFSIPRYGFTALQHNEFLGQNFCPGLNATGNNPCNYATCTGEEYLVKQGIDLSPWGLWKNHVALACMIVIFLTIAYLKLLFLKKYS", "experimental": "as §3\n(§5) A. The ability to transport E1S at telaprevir-absent or -present conditions was determined by measuring the radioactivity of [^3H]-E1S taken up in membrane vesicles. A similar experiment was done for MTX. […] E1S concentration was 50 nmol/L (A) and 50, 100, and 200 nmol/L (B), and of telaprevir was 0, 1, 10, and 100 μmol/L (A) and 50 μmol/L (B), respectively. MTX concentration was 100 nmol/L (A), and 100, 200 and 400 nmol/L (B). Membrane vesicles of K562/BCRP cells were used."}, "[3]": {"tested_on": "OCT2", "conditions": "cited from earlier work"}, "[4]": {"tested_on": "MATE1", "conditions": "cited from earlier work"}, "[5]": {"tested_on": "OATP1B1", "conditions": "cited from earlier work"}, "[6]": {"tested_on": "OATP1B", "conditions": "cited from earlier work"}, "[7]": {"tested_on": "OCT1", "conditions": "cited from earlier work"}, "[8]": {"biological_target": "T1, P-gp", "experiment": "biochemical", "experimental": "as §3, §4"}, "[9]": {"biological_target": "T2, BCRP", "experiment": "biochemical", "conditions": "for IC50: IC50 of telaprevir on BCRP-mediated transport; for Ki: Lineweaver-Burk plot, 50 μmol/L telaprevir", "experimental": "as §3, §5"}, "[10]": {"biological_target": "T1, P-gp", "experiment": "Photoaffinity labeling of P-gp with [125I]-IAAP", "format": "binding", "set-up": "expressed in transfected cells; host or cells: K562/MDR cells (plasma membrane vesicles)", "conditions": "for P-gp band intensity (% of no-inhibitor): human, 10 min, pH 7.4", "method": "(§1) Photoaffinity labeling assay was done as described previously. In brief, plasma membrane fractions (45 μg protein/sample) were pre-incubated at 4°C for 5 min at the indicated concentration of telaprevir in 0.25 mol/L sucrose solution containing 10 mmol/L HEPES-NaOH (pH 7.4). Then, 5 nmol/L radioactive iodine-labeled IAAP, i.e., [^125I]-IAAP (2200 Ci/mmol), was added and the mixture incubated for an additional 10 min. Samples were kept on ice and illuminated with an ultraviolet lamp (B-100AP; UVP, Upland, CA, USA) at 365 nm for 30 min. These processes were carried out on ice. For the BCRP assay, the labeled BCRP protein was solubilized in a buffer (1% NP-40, 20 mmol/L Tris–HCl (pH 7.4), 150 mmol/L NaCl, 1 mmol/L ethylenediamine tetra-acetic acid (EDTA)) and immunoprecipitated with anti-BCRP antibody BXP-21 (Millipore, Billerica, MA, USA), then solubilized by Laemmli sodium dodecyl sulfate (SDS) buffer. For the P-gp assay, membrane fractions were solubilized directly by Laemmli SDS buffer. Samples were separated by sodium dodecyl sulfate-polyacrylamide gel electrophoresis (SDS-PAGE), and gels were dried. The binding of [^125I]-IAAP with P-gp and BCRP was quantified using a FLA7000 Bioimage Analyzer (Fuji Film, Tokyo, Japan) and Multi-Gauge software (Fuji Film).\n(§2) Figure 3 Effect of telaprevir on photoaffinity labeling of P-gp and BCRP with [^125I]-IAAP. K562/MDR- or K562/BCRP-vesicles were mixed with the indicated concentrations of telaprevir for 5 min. Vesicles were pre-incubated with 5 nmol/L [^125I]-IAAP (2200 Ci/mmol) for 10 min, and then illuminated with a UV lamp (365 nm) for 30 min. IAAP-labeled protein was solubilized by Laemmli SDS buffer directly (for the P-gp assay) or after immunoprecipitation (for the BCRP assay), and subjected to SDS-PAGE. Signals were visualized and analyzed with a FLA7000 system. The black arrowheads are P-gp or BCRP. […] The binding of [^125I]-IAAP with P-gp and BCRP was calculated from standard curve analysis using a FLA7000 Bioimage Analyzer (Fuji Film, Tokyo, Japan) and Multi-Gauge software (Fuji Film)."}, "[11]": {"biological_target": "T2, BCRP", "experiment": "Photoaffinity labeling of BCRP with [125I]-IAAP", "format": "binding", "set-up": "expressed in transfected cells; host or cells: K562/BCRP cells (plasma membrane vesicles)", "conditions": "for BCRP band intensity (% of no-inhibitor): human, 10 min, pH 7.4", "method": "as §1\nas §2, with “Film). […] I copied these numbers as results for the inhibitors, although gels and blots are otherwise left out. / The value 0 under the 'K562 vesicle' control lane in panels A and B is left out because it belongs to no substance.” for “Film).”"}, "[12]": {"biological_target": "T1, P-gp", "set-up": "expressed in transfected cells; host or cells: K562/MDR cells (plasma membrane vesicles); method as in PMID 23293300, PMID 22331658", "conditions": "cellular system; cited from earlier work"}, "[13]": {"biological_target": "T2, BCRP", "set-up": "expressed in transfected cells; host or cells: K562/BCRP cells (plasma membrane vesicles); method as in PMID 23293300, PMID 22331658", "conditions": "cellular system; cited from earlier work"}}, "note": "Several values for one entry are separate records, joined by “and”; a condition that tells them apart may be missing. Equal values may be shown once. Read-outs that look alike come from different tables or passages of the source."}
{"smiles": "CCC[C@H](NC(=O)[C@@H]1[C@H]2CCC[C@H]2CN1C(=O)[C@@H](NC(=O)[C@@H](NC(=O)c1cnccn1)C1CCCCC1)C(C)(C)C)C(=O)C(=O)NC1CC1", "note": "[telaprevir]", "values": [{"measurement": "Inhibitory mode", "setting": "[1]", "result": "competitive"}, {"measurement": "Vmax", "setting": "[1]; human, 10 min, 20 μmol/L, pH 7.4", "result": 7.1, "unit": "pmol/mg/10 min"}, {"measurement": "Inhibitory mode", "setting": "[2]", "result": "competitive"}, {"measurement": "IC50", "setting": "[3]", "result": 6.4, "unit": "µM"}, {"measurement": "IC50", "setting": "[4]", "result": 23, "unit": "µM"}, {"measurement": "IC50", "setting": "[5]", "result": 2.2, "unit": "µM"}, {"measurement": "IC50", "setting": "[6]", "result": 36.8, "unit": "µM"}, {"measurement": "IC50", "setting": "[7]", "result": 20.7, "unit": "µM"}, {"measurement": "Ki", "setting": "[8]", "result": 4.8, "unit": "µM"}, {"measurement": "IC50", "setting": "[8]; IC50 of telaprevir on P-gp-mediated transport, substrate VCR, K562/MDR vesicles", "result": "~7 µM and 7 µM"}, {"measurement": "IC50", "setting": "[9]; substrate E1S, K562/BCRP vesicles", "result": 30, "unit": "µM"}, {"measurement": "IC50", "setting": "[9]; substrate MTX, K562/BCRP vesicles", "result": 31, "unit": "µM"}, {"measurement": "IC50", "setting": "[9]; substrate not specified", "result": "~30", "unit": "µM"}, {"measurement": "Ki", "setting": "[9]; BCRP-mediated E1S transport", "result": "44 µM and 44.4 µM"}, {"measurement": "Ki", "setting": "[9]; BCRP-mediated MTX transport", "result": 94.8, "unit": "µM"}, {"measurement": "IC50", "setting": "[10]; IC50 on [125I]-IAAP binding with P-gp, K562/MDR vesicles, 5 nmol/L [125I]-IAAP", "result": 16.5, "unit": "µM"}, {"measurement": "P-gp band intensity (% of no-inhibitor)", "setting": "[10]; 2.5 μmol/L", "result": "85 % of no-inhibitor"}, {"measurement": "P-gp band intensity (% of no-inhibitor)", "setting": "[10]; 5 μmol/L", "result": "71 % of no-inhibitor"}, {"measurement": "P-gp band intensity (% of no-inhibitor)", "setting": "[10]; 10 μmol/L", "result": "64 % of no-inhibitor"}, {"measurement": "P-gp band intensity (% of no-inhibitor)", "setting": "[10]; 20 μmol/L", "result": "47 % of no-inhibitor"}, {"measurement": "P-gp band intensity (% of no-inhibitor)", "setting": "[10]; 40 μmol/L", "result": "30 % of no-inhibitor"}, {"measurement": "IC50", "setting": "[11]", "result": "> 80", "unit": "µM"}, {"measurement": "BCRP band intensity (% of no-inhibitor)", "setting": "[11]; 5 μmol/L", "result": "95 % of no-inhibitor"}, {"measurement": "BCRP band intensity (% of no-inhibitor)", "setting": "[11]; 20 μmol/L", "result": "72 % of no-inhibitor"}, {"measurement": "BCRP band intensity (% of no-inhibitor)", "setting": "[11]; 80 μmol/L", "result": "58 % of no-inhibitor"}]}
{"smiles": "CC(C)(C)NC(=O)N[C@H](C(=O)N1C[C@H]2[C@@H]([C@H]1C(=O)NC(CC1CCC1)C(=O)C(N)=O)C2(C)C)C(C)(C)C", "note": "(stereo partly drawn) [boceprevir]", "values": [{"measurement": "Inhibitory effect on P-gp", "setting": "[12]", "result": "very low"}, {"measurement": "IC50", "setting": "[13]", "result": "~80", "unit": "µM"}]}
